The values below come from ChEMBL document CHEMBL1201862, “PubChem BioAssay data set” (2004).

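How tested: cells in 96-well plates exposed to compound for 48 hours at five concentrations. The concentration for 50% growth inhibition is given as GI50.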 The source made the active and inactive calls. Cut-off read from the data, not from the text of the source: active = GI50 up to about 1.1 µM and inactive = higher. A value given as a limit tells only on which side of the number the result lay.

Among the test systems are NCI/ADR-RES; T47D; MDA-N.
What all share (test): NCI tumour cell line growth inhibition, 48 h

With `O=C1OC(C(O)C(O)C(O)CO)C(O)C1O` (stereo unspecified), the GI50 with NCI/ADR-RES and in the experiment on T47D was > 100 µM (inactive) in each case.

As for `Cc1ccc(/C(O)=C/c2nc3ccccc3oc2=O)cc1`, the GI50 is 23.6 µM (inactive) with MDA-N, 25.5 µM (inactive) in the experiment on NCI/ADR-RES and 77.6 µM (inactive) with T47D.

As to `CC1=Nn2c(nc3sc4c(c3c2=O)CCCC4)SC1`, the GI50 is 28.4 µM (inactive) in the experiment on MDA-N, 98.6 µM (inactive) in the experiment with NCI/ADR-RES and 58.5 µM (inactive) with T47D.

On to `O=c1[nH]c(N/N=C\C(O)C(O)C(O)CO)nc2ccccc12` (stereo unspecified), for which the GI50 in the experiment on MDA-N, in the experiment on NCI/ADR-RES and with T47D was > 100 µM (inactive) each time.

For `CCOC1SC(SC)=NN1C(=O)C(OC(C)=O)C(OC(C)=O)C(OC(C)=O)C(OC(C)=O)C(=O)N1N=C(SC)SC1OCC` (stereo unspecified), the GI50 in the experiment with MDA-N, in the experiment on NCI/ADR-RES and in the experiment on T47D was > 100 µM (inactive) each time.

Regarding `C=CCOCn1cnc2c(N)ncnc21`, the GI50 in the experiment with MDA-N, in the experiment on NCI/ADR-RES and with T47D was > 100 µM (inactive) each time.

In the case of `COc1cc2c(cc1OC)-c1c(oc3cc(OC4OC(CO)C(O)C(O)C4O)c(OC)cc3c1=O)C(O)O2` (stereo unspecified), the GI50 with NCI/ADR-RES is > 100 µM (inactive).

Regarding `O=C1/C(=C/c2cccs2)NC(=S)N1CN1CCCCC1`, the GI50 with MDA-N and in the experiment with NCI/ADR-RES was > 100 µM (inactive) each time.

As to `C[C@]12CC[C@H](O)CC1=CC[C@@H]1C2CC[C@]2(C)c3nn(-c4ccc(F)cc4)nc3CC12` (stereo partly specified), the GI50 with MDA-N is 81.8 µM (inactive); in the experiment with T47D, 24.4 µM (inactive).

Consider `Cc1cc(C)c2ccc(N3CCNCC3)nc2n1`, for which the GI50 in the experiment with MDA-N and with NCI/ADR-RES was > 100 µM (inactive) each time.

With `COc1ccc2c(=O)c3cc([N+](=O)[O-])ccc3n(C)c2c1`, the GI50 in the experiment with MDA-N, in the experiment on NCI/ADR-RES and in the experiment on T47D was > 100 µM (inactive) in each case.

As for `COC(=O)[C@H](C)NC(=O)[C@H](NS(=O)(=O)c1nc2ccccc2s1)c1ccccc1`, the values for the GI50 in the experiment on NCI/ADR-RES and in the experiment on T47D were 30.3 µM (inactive) and 15.3 µM (inactive), respectively.

As for `C=CCCCCCCCCC(=O)ON(Cc1ccc(O)c(OC)c1)C(=O)C(F)(F)F`, the GI50 in the experiment with NCI/ADR-RES was > 100 µM (inactive); in the experiment on T47D, 72.1 µM (inactive).

For the compound `O=C(ON=C1c2ccccc2C(Br)C(Br)c2ccccc21)c1ccccc1` (stereo unspecified), the GI50 with MDA-N is 17.8 µM (inactive); in the experiment on NCI/ADR-RES, 22.8 µM (inactive); in the experiment on T47D it was 9.57 µM (inactive).

Take `CC/C(Cl)=N\OC(=O)Nc1ccc(F)c([N+](=O)[O-])c1`: the GI50 with MDA-N is 17.7 µM (inactive); in the experiment with NCI/ADR-RES, 26.9 µM (inactive).

In the case of `O=C1CC(C(O)C(O)C(O)CO)CC(=O)N1` (stereo unspecified), the GI50 in the experiment with MDA-N, in the experiment with NCI/ADR-RES and in the experiment with T47D was > 100 µM (inactive) in each case.

`C=CCC1(O)C(=O)OC2C(O)COC21O` (stereo unspecified): the GI50 with MDA-N, in the experiment with NCI/ADR-RES and in the experiment with T47D was > 100 µM (inactive) in each case.

On to `COC(=O)C1(Cc2ccccc2)Cc2cc3c(cc2C1O)CCC3` (stereo unspecified), for which the GI50 in the experiment on MDA-N was 17.5 µM (inactive); in the experiment on NCI/ADR-RES it was 18.4 µM (inactive); with T47D it was 28.5 µM (inactive).

Turning to `c1ccc(Cc2cc(-c3ccccc3)[nH]n2)cc1`, the GI50 in the experiment with NCI/ADR-RES is 21.8 µM (inactive); in the experiment with T47D it was 33.3 µM (inactive).

Take `O=C1c2ccccc2C(=O)c2c1ccc1nc3c(nc21)-c1c2ccccc2cc2cccc-3c12`: the GI50 with MDA-N is 32.6 µM (inactive); in the experiment on NCI/ADR-RES, 36.3 µM (inactive); with T47D, 33.6 µM (inactive).

As to `CC(O)(/C=C/c1ccccc1)P(=O)(O)c1ccccc1` (stereo unspecified), the GI50 with MDA-N, in the experiment with NCI/ADR-RES and in the experiment on T47D was > 100 µM (inactive) in each case.

Take `Nc1ncnc2c1ncn2[C@@H]1O[C@H](COP(=O)(O)OP(=O)(O)OC[C@H]2O[C@@H](OCCCO)[C@H](O)[C@@H]2O)[C@@H](O)[C@H]1O`: the GI50 in the experiment with MDA-N was 78.9 µM (inactive); with NCI/ADR-RES, > 100 µM (inactive); with T47D it was > 100 µM (inactive).

In the case of `Cc1ccc(SCC(CF)OC(C)n2cnc3c(Cl)nc(N)nc32)cc1` (stereo unspecified), the GI50 with MDA-N was 89.1 µM (inactive); in the experiment with NCI/ADR-RES, 25.1 µM (inactive); in the experiment on T47D it was 54.6 µM (inactive).

Turning to `C[N+]12CCCCC1C(CN1C(=O)Cc3c4ccccc4c(c4ccccc34)CC1=O)CCC2` (stereo unspecified), the GI50 in the experiment on MDA-N, with NCI/ADR-RES and in the experiment with T47D was > 100 µM (inactive) throughout.

In the case of `COc1ccc(-c2nc3ncccn3c2-c2ccc([S+](C)[O-])cc2)cc1` (stereo unspecified), the GI50 in the experiment with MDA-N is 36.9 µM (inactive); in the experiment on NCI/ADR-RES, > 100 µM (inactive).

On to `CC1(C)CCCCCCCCCC(C)(CCCO)C1=O` (stereo unspecified), for which the GI50 in the experiment on MDA-N is 16.4 µM (inactive); in the experiment with NCI/ADR-RES, 16.6 µM (inactive); in the experiment on T47D, 15.6 µM (inactive).

For `CCC/C(Cl)=N\OC(=O)Nc1ccc(Br)cc1`, the GI50 was 13.2 µM (inactive) with MDA-N, 8.99 µM (inactive) in the experiment on NCI/ADR-RES and 7.24 µM (inactive) with T47D.

On to `NC(Cc1c[nH]c2cc([N+](=O)[O-])ccc12)C(=O)O` (stereo unspecified), for which the GI50 in the experiment on MDA-N, in the experiment with NCI/ADR-RES and in the experiment with T47D was > 100 µM (inactive) each time.

On to `CC1=NN(c2ccccc2)C(=O)C1/N=N/c1ccc([As](=O)(O)O)c(O)c1` (stereo unspecified), for which the values for the GI50 in the experiment on MDA-N, in the experiment with NCI/ADR-RES and with T47D were > 100 µM (inactive), > 100 µM (inactive) and 60.8 µM (inactive), respectively.

Take `Cc1ccc(-c2cc(O)c3nc4ccccc4n3c2)cc1`: the GI50 in the experiment on MDA-N, with NCI/ADR-RES and in the experiment with T47D was > 100 µM (inactive) throughout.

In the case of `COc1cc2c(cc1OCCCC(=O)Nc1cc(C(=O)Nc3cc(C(=O)NCCCN(C)C)n(C)n3)n(C)n1)N=CC1CCCN1C2=O` (stereo unspecified), the figures for the GI50 in the experiment with MDA-N, with NCI/ADR-RES and in the experiment on T47D were 16.6 µM (inactive), 20 µM (inactive) and 14.2 µM (inactive), respectively.

For `CC(=O)/C=C/C=C(\C)CC/C=C(\C)CC(C)C`, the GI50 with MDA-N was 30.2 µM (inactive); with T47D, 14.6 µM (inactive).

Take `O=C1N/C(=N/N=C/c2ccccc2)N/C1=C\c1cccs1`: the results for the GI50 in the experiment with MDA-N, with NCI/ADR-RES and with T47D were 8.32 µM (inactive), 15.2 µM (inactive) and 28.2 µM (inactive), respectively.

For `Cc1nn(C(=O)c2ccccc2O)c2c1C(c1ccc(O)cc1O)SC(=N)N2` (stereo unspecified), the GI50 was 5.78 µM (inactive) in the experiment with MDA-N and 3.33 µM (inactive) with NCI/ADR-RES.

Consider `O=C(c1ccc(/N=C/c2ccccc2O)cc1)c1ccc(/N=C/c2ccccc2O)cc1`, for which the figures for the GI50 in the experiment on NCI/ADR-RES and in the experiment on T47D were > 100 µM (inactive) and 62.8 µM (inactive), respectively.

Consider `CC(/C=N/N(C)C1=NCCCN1)=N/N(C)C1=NCCCN1`, for which the GI50 in the experiment with MDA-N, with NCI/ADR-RES and with T47D was > 100 µM (inactive) each time.

As for `O=C1C(C(c2ccc([N+](=O)[O-])cc2)N2CCOCC2)=C(O)C(c2ccccc2)N1c1ccccc1` (stereo unspecified), the GI50 in the experiment on MDA-N, with NCI/ADR-RES and in the experiment on T47D was > 10 µM (inactive) throughout.

Consider `CC(=O)OCC12C(OC(C)=O)C(=O)C3C(OC(C)=O)C14OC3(C)COC(=O)c1cccnc1C(C)C(C)C(=O)OC(C(OC(C)=O)C2OC(C)=O)C4(C)O` (stereo unspecified), for which the GI50 with MDA-N and in the experiment with T47D was > 100 µM (inactive) in each case.

`COC(=O)C1=C2SCc3ccc(cc3)CSC3=C(C(=O)OC)SC(=C(S2)S1)S3`: the figures for the GI50 in the experiment on MDA-N and in the experiment on T47D were 74.6 µM (inactive) and > 100 µM (inactive), respectively.
